Laboratory results from US20090220462A1, “STEM CELLS” (Duke University, priority 2005, published 2009).
Values joined by “and” are separate entries in the source; they are usually repeats but may differ in a detail not shown here. Equal values may be shown once.

Tests used:
CB CD34+CD38−lin− cells = experiment: 7 day culture of CB CD34+CD38−lin− cells with TSF with and without ATRA (immunophenotype, CFC, morphology); assay type: cell-based, human
Description: (§1) Primary human BM and CB CD34^+CD38^−lin^− cells were placed in culture with 20 ng/mL thrombopoietin, 100 ng/mL SCF, and flt-3 ligand (TSF), a cytokine combination previously found to induce human stem and progenitor cell proliferation and differentiation in vitro (Chute et al, Blood 105:576-583 (2005), Chute et al, Stem ells 22:202-215 (2004)). In order to assess whether inhibition of ALDH activity could block the differentiation of human HSCs induced to proliferate by TSF, 1-2×10^4 BM or CB CD34^+CD38^−lin^− cells were cultured×7 days with IMDM, 10% FBS and 1% pcn/strp supplemented with TSF with and without 100 μM DEAB. At day 7, the progeny of all cultures were collected, washed×2 and cell counts were performed. A minimum of n=5 experiments was performed per culture condition to allow statistical comparisons to be performed. Immunophenotypic analysis was performed on progeny cells using anti-human CD34 and CD38 mAbs (Becton Dickinson) and isotype control IgG mAbs and compared with day 0 (input) staining. Fourteen day methylcellulose CFC assays (colony forming unit-granulocyte monocyte, CFU-GM, burst forming unit-erythroid, BFU-E, and colony forming unit-mix, CFU-Mix) were performed as we have previously described (Chute et al, Blood 100:4433-4439 (2002), Chute et al, Blood 105:576-583 (2005), Chute et al, Stem ells 22:202-215 (2004)) to compare the number of lineage committed CFCs within day 0 CD34^+CD38^−lin^− cells and their progeny. Morphologic analysis of day 0 CD34^+CD38^−lin^− cells and their progeny following 7 day culture was performed using Wrights-Geimsa staining and microscopic analysis under oil immersion (100×).
In order to assess the hematopoietic effects of retinoid agonists on purified human HSCs, BM and CB CD34^+CD38^−lin^− cells were placed in culture with TSF with and without 1 μM all-trans retinoic acid (ATRA), an agonist of RAR. Total cell expansion, immunophenotype, CFC content and morphologic analysis was performed on ATRA-treated progeny and compared with both day 0 CD34^+CD38^−lin^− populations and the progeny of TSF alone to assess the impact of retinoid agonism on the differentiation of human HSCs.

ALDH = ALDH activity by ALDEFLUOR staining of cultured CD34+CD38− cells; assay type: cell-based, human; settings: 100 μM DEAB+TSF, 7 days, compared to day 0 or TSF alone, P=0.001
Description: (§2) Primary human BM and CB CD34^+CD38^−lin^− cells were placed in culture with 20 ng/mL thrombopoietin, 100 ng/mL SCF, and flt-3 ligand (TSF), a cytokine combination previously found to induce human stem and progenitor cell proliferation and differentiation in vitro (Chute et al, Blood 105:576-583 (2005), Chute et al, Stem ells 22:202-215 (2004)). In order to assess whether inhibition of ALDH activity could block the differentiation of human HSCs induced to proliferate by TSF, 1-2×10^4 BM or CB CD34^+CD38^−lin^− cells were cultured×7 days with IMDM, 10% FBS and 1% pcn/strp supplemented with TSF with and without 100 μM DEAB. At day 7, the progeny of all cultures were collected, washed×2 and cell counts were performed. A minimum of n=5 experiments was performed per culture condition to allow statistical comparisons to be performed. Immunophenotypic analysis was performed on progeny cells using anti-human CD34 and CD38 mAbs (Becton Dickinson) and isotype control IgG mAbs and compared with day 0 (input) staining. […]

[1] = system: BM and CB CD34+CD38−lin− cells; experiment: 7 day culture of BM and CB CD34+CD38−lin− cells with TSF with and without DEAB (cell counts, immunophenotype, morphology); assay type: cell-based, human
Description: as §1

BM CD34+CD38−lin− cells = experiment: Fourteen day methylcellulose CFC assay of culture progeny; assay type: cell-based, human; settings: DEAB+TSF 7 days (TSF alone 5-fold increase vs input)
Description: as §2

[2] = system: CB CD34+CD38−lin− cells (SRCs); experiment: Long-term repopulating assay in NOD/SCID mice, CB cells (limiting dilution, SRC frequency); assay type: in vivo, human
Description: (§3) NOD/SCID mice (Schulz et al, J. Immunol. 154:180-191 (1995)) were transplanted with either day 0 FACS-sorted BM or CB CD34^+CD38^−lin− HSC-enriched cells or the progeny of CD34^+CD38^−lin− cells cultured with TSF alone or TSF supplemented with 100 μM DEAB. Cells were transplanted via tail vein injection after irradiating NOD/SCID mice with 300 cGy using an X-ray irradiator as previously described (Chute et al, Blood 100:4433-4439 (2002), Chute et al, Blood 105:576-583 (2005)). Day 0 CD34^+CD38^−lin− HSCs and their progeny were co-transplanted with 2×10^4 […] to facilitate engraftment as previously described (Bonnet et al, Bone Marrow Transpl. 23:203-209 (1999), Bhatia et al, Proc. Natl. Acad. Sci. USA 94:5320-5325 (1997)).
(§4) All mice in each group were sacrificed at week 8 and marrow samples were obtained by flushing their femurs with IMDM at 4° C. Red cells were lysed using red cell lysis buffer (Sigma-Aldrich) and flow cytometric analysis of human hematopoietic engraftment was performed as previously described using commercially available mAbs against human leukocyte differentiation antigens to identify engrafted human leukocytes and discriminate their hematopoietic lineages (Chute et al, Blood 100:4433-4439 (2002), Chute et al, Blood 105:576-583 (2005), Trischmann et al, J. Hematother. 2:305-313 (1993)).
(§5) Comparisons of data from in vitro experiments were made using the Student's t test. For purposes of the limiting dilution analysis, a transplanted mouse was scored as positively engrafted if ≧0.1% of the marrow cells expressed human-CD45 via high resolution FACS analysis. This criteria is consistent with previously published criteria for human cell repopulation in NOD/SCID mice (Chute et al, Blood 100:4433-4439 (2002), Dorrell et al, Blood 95:102-110 (2000)). SRC frequency in each cell source was calculated using the maximum likelihood estimator as described previously by Taswell (J. Immunol. 126:1614-1619 (1981), Wang et al, Blood 89:3919-3924 (1997), Ueda et al, J. Clin. Invest. 105:1013-1021 (2000)). Confidence intervals for the frequencies were calculated using the profile likelihood method, and the likelihood ratio test was used to confirm the fit of the model.

[3] = system: BM CD34+CD38−lin− cells (SRCs); experiment: Long-term repopulating assay in NOD/SCID mice, BM cells (SRC frequency); assay type: in vivo, human
Description: as §3, §4, §5

HOXB4 = experiment: Quantitative real-time PCR of HOXB4 in cultured CB CD34+CD38−lin− cells; assay type: cell-based, human; settings: DEAB added to TSF (TSF alone 5-fold decrease vs day 0)
Description: (§6) Extraction of total RNA from Day 0 and Day 7 CB CD34^+ populations was done using a RNeasy Mini spin column (Qiagen, Valencia, Calif.) according to the manufacturer's recommended protocol. […] Briefly, total RNA was isolated from CD34^+CD38^−lin^− cells according to the manufacturer's instructions for the RNaqueous®-Micro (Ambion) and reversed-transcribed to cDNA using iScript™ cDNA synthesis Kit (Biorad, Hercules, Calif.). cDNA concentrations were measured with a fluorometer (Turner Designs, Sunnyvale, Calif.) using RiboGreen reagent (Invitrogen). PCR amplification reactions were performed in 13 μl and contained equal amounts of cDNAs, 6.5 μl of iQ SYBR green supermix (Bio-Rad), 0.2 μM of each forward and reverse gene-specific primers for genes of interest and the normalization gene 36B4. PCR was performed on an iCycler (Bio-Rad) according to the following cycling conditions: an initial cycle of 15 min at 95° C.; 45 cycles of 45 sec at 95° C., 15 sec at 55° C., and 15 sec at 72° C.; followed by a melt-curve analysis cycle with steps of 10 sec each at 0.5° C. increments from 60 to 95° C. Amplification rates were visualized and analyzed on ICYCLER IQ optical system software version 3.0 (Bio-Rad). Gene-specific primers were purchased from Integrated DNA Technologies (Coralville, Iowa).

Notch = experiment: Quantitative real-time PCR of Notch in cultured CB CD34+CD38−lin− cells; assay type: cell-based, human; settings: DEAB+TSF
Description: as §6

[4] = progeny of DEAB+TSF cultures, cell dose 0.5-1×10^3, 8 weeks

Structure (SMILES): CC1=C(/C=C/C(C)=C/C=C/C(C)=C/C(=O)O)C(C)(C)CCC1 [ATRA, all-trans retinoic acid]
- HSC differentiation in presence of DEAB (CB CD34+CD38−lin− cells; 1 μM ATRA+100 μM DEAB+TSF): HSC differentiation occurred
- number of CFCs compared to TSF alone (CB CD34+CD38−lin− cells; ATRA+TSF treated cultures): decreased
- differentiation and maturation of human HSCs (CB CD34+CD38−lin− cells; ATRA, by day 7): induced pronounced differentiation and myeloid maturation
- CD34+CD38− cells remaining in culture (CB CD34+CD38−lin− cells; TSF+1 μM ATRA, day 7): no CD34^+CD38^− cells remained
- percentage of CD34+ cells relative to TSF alone (CB CD34+CD38−lin− cells; TSF+1 μM ATRA, day 7): declined

Structure (SMILES): CCN(CC)c1ccc(C=O)cc1 [DEAB]
- ALDH activity in CD34+CD38− cells (ALDH): significantly reduced
- absolute numbers of CD34+CD38− cells compared to day 0 ([1]; 100 μM DEAB+TSF, 7 days (TSF alone 5-fold decrease)): maintenance
- mean total cell expansion ([1]; 100 μM DEAB+TSF, 7 days (TSF alone 15-fold)): 4 fold
- percentages of primitive CD34+CD38− cells in progeny ([1]; BM and CB cells, DEAB+TSF 7 days, compared to TSF alone, P=0.01 and P=0.02): significantly higher
- morphologic examination of progeny ([1]; DEAB+TSF cultures, Wrights-Giemsa staining, data not shown): predominance of cells with high nuclear:cytoplasmic ratios and prominent nucleoli
- CFC content of progeny (BM CD34+CD38−lin− cells): little CFC content
- fold increase in SRC frequency ([2]; DEAB+TSF versus day 0 cells or TSF alone): 2 fold
- multilineage differentiation in transplanted mice ([2]; mice transplanted with DEAB+TSF cultured cells, flow cytometry of BM): extensive CD34^+ progenitor cell, CD19^+ B lymphoid and CD 33/13^+ myeloid differentiation
- fold higher levels of huCD45+ cell engraftment [2, 4]: 4 fold
- mean huCD45+ cell engraftment [2, 4]: 0.9%
- mice showing huCD45+ cell repopulation at 8 weeks ([2]; progeny of DEAB+TSF cultures, cell dose 0.5-1×10^3, 9 of 17 mice (day 0 31%, TSF 18%)): 53%
- higher levels of huCD45+ cell engraftment versus day 0 or TSF ([2]; progeny of DEAB+TSF cultures, cell dose 2.5×10^3): 1 log
- mean huCD45+ cell engraftment ([2]; progeny of DEAB+TSF cultures, cell dose 2.5×10^3, 8 weeks (day 0 0.9%, TSF 0.7%)): 8.0%
- huCD45+ cell repopulation ([3]; cell dose 1-2.5×10^3, TSF+DEAB progeny): no huCD45^+ cell repopulation was detected
- transplanted mice with human repopulation (FIG. 4 legend) ([3]; progeny of 5×10^3 cells after DEAB+TSF culture): 50-80%
- mean huCD45+ cell engraftment ([3]; progeny of DEAB+TSF cultures, cell dose 5×10^3): 0.1%
- mice showing huCD45+ cell engraftment ([3]; progeny of DEAB+TSF cultures, cell dose 5×10^3, 3 of 6 mice (day 0 and TSF 0 of 5)): 50%
- HOXB4 expression relative to input levels (HOXB4): 80% and 70%
- Notch transcription compared to TSF alone (Notch): did not alter
